Measurements as given in PubChem BioAssay (NCI).
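Compound exposure: 48 hours, 5 concentrations, 96-well plates. GI50 marks 50% less growth. TGI denotes the concentration required for complete inhibition of growth.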

How the values were obtained:
Experiment in all cases: NCI-60 cell line screen, 48 h; in the data active = GI50 below about 0.43 µM; inactive = the rest
[1] = system: CCRF-CEM leukemia
[2] = system: EKVX NSCLC
[3] = system: HCT-116 colon
[4] = system: HL-60(TB) leukemia
[5] = system: HS 578T breast
[6] = system: 786-0 renal
[7] = system: A498 renal
[8] = system: A549 NSCLC
[9] = system: ACHN renal
[10] = system: CAKI-1 renal
[11] = system: COLO 205 colon
[12] = system: DU-145 prostate
[13] = system: HCC-2998 colon
[14] = system: HCT-15 colon
[15] = system: HOP-62 NSCLC
[16] = system: HOP-92 NSCLC
[17] = system: IGROV1 ovarian
[18] = system: K-562 leukemia
[19] = system: KM12 colon
[20] = system: LOX IMVI melanoma
[21] = system: M14 melanoma
[22] = system: MCF7 breast
[23] = system: MDA-MB-231 breast
[24] = system: MOLT-4 leukemia
[25] = system: NCI-H226 lung
[26] = system: NCI-H23 lung
[27] = system: NCI-H460 lung
[28] = system: NCI/ADR-RES ovarian
[29] = system: OVCAR-3 ovarian
[30] = system: OVCAR-4 ovarian
[31] = system: OVCAR-5 ovarian
[32] = system: OVCAR-8 ovarian
[33] = system: PC-3 prostate
[34] = system: RPMI-8226 leukemia
[35] = system: RXF 393 renal
[36] = system: SF-268 CNS
[37] = system: SF-295 CNS
[38] = system: SF-539 CNS
[39] = system: SK-MEL-28 melanoma
[40] = system: SK-MEL-5 melanoma
[41] = system: SK-OV-3 ovarian
[42] = system: SNB-19 CNS
[43] = system: SNB-75 CNS
[44] = system: SR leukemia
[45] = system: SW-620 colon
[46] = system: T-47D breast
[47] = system: U251 CNS
[48] = system: UACC-257 melanoma
[49] = system: UACC-62 melanoma
[50] = system: UO-31 renal

CCCOC(C)OCCC#CCC(C)OC(=O)CC(Cl)(Cl)Cl (stereo not given)
inactive: GI50 [1] 22.6 µg/mL | GI50 [2] 98.4 µg/mL | GI50 [3] 50.8 µg/mL | GI50 [4] 46.5 µg/mL | GI50 [5] 56.8 µg/mL

Cc1cccc(N2CCN(C(=S)c3ccc4c(c3)OCO4)CC2)c1
19 µM: TGI [4]
5.82 µM: TGI [35]
active: GI50 [28] 0.338 µM | GI50 [29] 0.359 µM | GI50 [37] 0.409 µM
5.58 µM: TGI [5]
inactive: GI50 [6] 7.97 µM | GI50 [7] 0.799 µM | GI50 [8] 1.07 µM | GI50 [9] 3.88 µM | GI50 [10] 0.485 µM | GI50 [1] 6.91 µM | GI50 [11] 0.582 µM | GI50 [12] 2.34 µM | GI50 [2] 7.12 µM | GI50 [13] 3.76 µM | GI50 [3] 0.513 µM | GI50 [14] 0.625 µM | GI50 [4] 0.659 µM | GI50 [15] 0.883 µM | GI50 [16] 24.6 µM | GI50 [5] 0.501 µM | GI50 [17] 1.21 µM | GI50 [18] 0.521 µM | GI50 [19] 0.514 µM | GI50 [20] 1.88 µM | GI50 [21] 0.463 µM | GI50 [22] 0.571 µM | GI50 [23] 0.861 µM | GI50 [24] 15.8 µM | GI50 [25] 41 µM | GI50 [26] 7.07 µM | GI50 [27] 0.472 µM | GI50 [30] 67.7 µM | GI50 [31] 5.41 µM | GI50 [32] 1.81 µM | GI50 [33] 4.14 µM | GI50 [34] 8.01 µM | GI50 [35] 1.14 µM | GI50 [36] 3.85 µM | GI50 [38] 1.5 µM | GI50 [39] 2.19 µM | GI50 [40] 0.437 µM | GI50 [41] 2.19 µM | GI50 [42] 1.64 µM | GI50 [43] 0.8 µM | GI50 [44] 0.557 µM | GI50 [45] 0.467 µM | GI50 [46] 0.934 µM | GI50 [47] 1.89 µM | GI50 [48] > 100 µM | GI50 [49] 0.64 µM | GI50 [50] 14.4 µM
37.5 µM: TGI [27]
2.87 µM: TGI [29]
67.9 µM: TGI [7]
> 100 µM: TGI [6] | TGI [8] | TGI [9] | TGI [10] | TGI [1] | TGI [12] | TGI [2] | TGI [13] | TGI [3] | TGI [14] | TGI [15] | TGI [16] | TGI [17] | TGI [18] | TGI [19] | TGI [20] | TGI [21] | TGI [22] | TGI [23] | TGI [24] | TGI [25] | TGI [26] | TGI [28] | TGI [30] | TGI [31] | TGI [32] | TGI [33] | TGI [34] | TGI [36] | TGI [37] | TGI [38] | TGI [39] | TGI [42] | TGI [44] | TGI [45] | TGI [46] | TGI [47] | TGI [48] | TGI [49] | TGI [50]
4.9 µM: TGI [11]
35.1 µM: TGI [40]
6.85 µM: TGI [43]
83.3 µM: TGI [41]
